Test results from paper PMC7433010, “Exploration of multi‐target effects of 3‐benzoyl‐5‐hydroxychromen‐2‐one in Alzheimer’s disease cell and mouse models” (Aging Cell, 2020).

How the values were obtained:
[1] = tested on: ERK1/2; assay: Western blot of ERK1/2 in ∆K280 TauRD‐DsRed SH‐SY5Y cells; format: cell-based, human
Protocol: Total proteins from ∆K280 TauRD-DsRed SH-SY5Y cells were obtained using a RIPA buffer containing 50 mM Tris-HCl (pH8.0), 150 mM NaCl, 2 mM EDTA (pH8.0), 50 mM NaF, 0.1% SDS, 0.5% sodium deoxycholate, 1% NP40, and a protease inhibitor cocktail (Sigma-Aldrich). After sonication and sitting on ice for 20 min, the lysates were centrifuged at 14,000 × g for 30 min at 4°C. Protein concentrations were determined using a protein assay kit (Bio-Rad, Hercules, CA, USA), with albumin as a standard. Total proteins (20 µg) were electrophoresed on 10% or 12% SDS-polyacrylamide gel and transferred onto polyvinylidene difluoride (PVDF) membranes (Sigma-Aldrich) through reverse electrophoresis. […] Subsequently, immune complexes were detected using a horseradish peroxidase-conjugated goat anti-mouse or goat anti-rabbit IgG antibody (1:5000; GeneTex, Irvive, CA, USA) and a chemiluminescent substrate (Millipore).
Figure S4. ΔK280 TauRD-DsRed SH-SY5Y cells. […] On day 9, neurite outgrowth and caspase 3 activity were measured. In addition, expression of HSPB1, NRF2, and CREB pathways were assessed. (b) Relative AKT, pAKT, ERK, and pERK protein levels analyzed through immunoblotting. […]

[2] = Body weight in STZ‐treated 3 × Tg‐AD mice; format: in vivo, mouse; details: 40 mg/kg i.p.; among the three groups
Protocol: For the in vivo LM‐031 treatment experiments, 6‐month‐old male homozygous 3 × Tg‐AD mice (n = 10 per group) were used. Mice were randomly divided into three groups: – streptozocin (STZ), STZ, and STZ/LM‐031. STZ‐induced hyperglycemia was used to accelerate the development of AD phenotype. Mouse body weight and blood glucose level were measured on days 1, 8, 15, 22, and 29. LM‐031 (40 mg/kg) or vehicle (DMSO:Cremophor EL:0.9% saline = 1:2:7) was intraperitoneally injected every day for 22 days from days 15 to 36. All animal procedures were ethically approved by the Institutional Animal Care and Use Committee of National Taiwan Normal University, Taipei, Taiwan (Permit Number: 103002) and were conducted in compliance with the ARRIVE (Animal Research: Reporting In Vivo Experiments) guidelines. Open‐field task, Y‐maze task, Morris water maze task, and immunohistochemistry and image analysis were performed.
Mice harboring APPSwe, PS1M146V, and […] transgenes (3×Tg-AD) (Oddo et al., 2003) were purchased from the Jackson Laboratory (004807; Bar Harbor, ME, USA). […] Mouse body weight was measured and blood glucose level was measured on days 1, 8, 15, 22, and 29 using a blood glucose meter (Bioland Technology, Taipei, Taiwan). […]

## O=C(c1ccccc1)c1cc2c(O)cccc2oc1=O [LM‐031, 3‐benzoyl‐5‐hydroxychromen‐2‐one]
[1]
  ERK1/2 level: not notably affected
[2]
  body weight: No significant change
